Results reported in patent US8741889B2, “Method of treating non-small cell lung cancer and colon cancer with gamma-secretase inhibitor” (Hoffmann-La Roche Inc, priority 2008, dated 2014).

Key:
[1] = tested on: BxPC3 pancreatic xenografts; experiment: Antitumor efficacy in BxPC3 pancreatic xenografts in SCID-beige mice; format: in vivo
Method: Female (athymic nu/nu) nude mice were obtained from Charles River Laboratories (Wilmington, Mass.), while female SCID-beige mice were purchased from Taconic (Germantown, N.Y.). Mice were used when they were approximately 8-12 weeks old (nudes) or 8-10 weeks old (SCID-beige), and weighed approximately 23-25 grams. The health of all animals was determined daily by gross observation of experimental animals and by the analyses of blood samples of sentinel animals that were housed on the shared shelf racks. All animals were allowed to acclimate and recover from any shipping related stress for a minimum of 72 hours prior to experimental use. Autoclaved water and irradiated food [5058-ms Pico chow (mouse) Purina, Richmond, Ind.] were provided ad libitum, and the animals were maintained on a 12 hour light and dark cycle. Cages, bedding and water bottles were autoclaved before use and were changed weekly. MiaPaca2, AsPC1 and BxPC3 human pancreatic carcinoma cells were purchased from ATCC (Manassas, Va.). BxPC3 and AsPC1 cells were grown in RPMI medium and MiaPaca2 cells were grown in Dulbecco's Modified Essential Medium (DMEM). All culture media were supplemented with 10% (v/v) FBS and 1% (v/v) […]. […] SCID-biege mice were implanted se with 5×10^6 BxPC3 cells in a 1:1 mixture of matrigel:PBS in a volume of 0.2 ml per mouse in the right hind flank on May 22, 2007. […] Formulated compound and vehicle were stored at 4° C. and prepared weekly. The suspension was mixed vigorously prior to administration. Gemcitabine (Gemzar®, Eli Lilly and Company, Indianapolis, Ind., USA) was reconstituted with sterile saline to yield a stock solution of 38 mg/ml for the entire 3-4 week study. […] Nude mice implanted with MiaPaca2 or AsPC1 xenografts were randomized on day 17 and day 9 post cell implant, respectively. SCID-beige mice bearing BxPC3 xenografts were randomized 8 days post implant. […] Treatment for the MiaPaca2 study began on Feb. […] For the MiaPaca2 and AsPC1 studies, qd Compound (1) suspension or q3d gemcitabine treatment ended on day 37 post tumor cell implant, whereas for the BxPC3 study, qd Compound (1) suspension or q3d gemcitabine treatment ended on day 35 post tumor cell implant. Efficacy data was graphically represented as the mean tumor volume+standard error of the mean (SEM). Tumor volumes of treated groups were presented as percentages of tumor volumes of the control groups (% T/C), using the formula: 100×((T−T0)/(C−C0)), where T represented mean tumor volume of a treated group on a specific day during the experiment, T0 represented mean tumor volume of the same treated group on the first day of treatment; C represented mean tumor volume of a control group on the specific day during the experiment, and C0 represented mean tumor volume of the same treated group on the first day of treatment. Tumor volume (in cubic millimeters) was calculated using the ellipsoid formula: (D×(d2))/2 where ‘D’ represents the large diameter of the tumor, and ‘d’ represents the small diameter. In some cases, tumor regression and/or percent change in tumor volume was calculated using the formula: ((T−T0)/T0)×100 where ‘T’ represents mean tumor volume of the treated group at a particular day, and ‘T0’ represents mean tumor volume of the same treated group at initiation of treatment. Statistical analysis was determined by the rank sum test and One Way Anova and a post-hoc Bonferroni t-test (SigmaStat, version 2.0, Jandel Scientific, San Francisco, Calif.). Differences between groups were considered to be significant when the probability value (p) was ≦0.05.

H460a NSCLC xenografts = experiment: Antitumor efficacy in H460a NSCLC xenografts in nude mice; format: in vivo
Method: Female nude mice (10/group), obtained from Charles River Laboratories (Wilmington, Mass.) were used when they were approximately 13-14 weeks old and weighed approximately 23-25 grams. The health of all animals was determined daily by gross observation of experimental animals and by the analyses of blood samples of sentinel animals that were housed on the shared shelf racks. All animals were allowed to acclimate and recover from any shipping related stress for a minimum of 72 hours prior to experimental use. Autoclaved water and irradiated food [5058-ms Pico chow (mouse) Purina, Richmond, Ind.] were provided ad libitum, and the animals were maintained on a 12-hour light and dark cycle. Cages, bedding and water bottles were autoclaved before use and were changed weekly. Lovo human colorectal, Calu-6 NSCLC, and HCT116 colorectal cells were purchased from ATCC (Manassas, Va.). […] NSCLC cells were a gift from Dr. Jack Roth, MD Anderson Medical Center, Houston, Tex. Lovo cells were cultured in F12K culture medium, Calu-6 and […] were grown in Dulbecco's Modified Essential Medium (DMEM), and HCT116 cells were grown in McCoy's 5A medium. All culture media were supplemented with 10% (v/v) FBS and 1% (v/v) […] L-glutamine. […] Mice implanted with Lovo and Calu-6 xenografts were randomized on day 19 post-implant, mice implanted with HCT116 xenografts were randomized on day 20, while mice implanted with […] xenografts were randomized on day 12 post implant. […] Treatment for the Lovo and Calu-6 tumor studies began on Oct. 11, 2006 (day 19 post tumor cell implant), for the HCT116 study began on Oct. 16, 2006 (day 20 post tumor cell implant), and for the […] study on Oct. 11, 2006 (12 days post tumor cell implant). […] For the Lovo and Calu-6 studies, 21 day dosing ended on day 40 post-tumor cell implant. For intermittent dosing, treatment ended on day 26, was reinitiated on day 40, and ended day 47. For the HCT116 study, 21 day dosing ended on day 42 post tumor cell implant. Intermittent dosing ended on day 27, was reinitiated on day 42, and ended day 49. For the […] study, 21 day dosing ended early on day 27 post tumor cell implant, whereas for intermittent dosing, treatment ended day 19, and was not reinitiated (due to lack of efficacy). Efficacy data was graphically represented as the mean tumor volume ±standard error of the mean (SEM). […] Statistical analysis was determined by the rank sum test and One Way Anova and a post-hoc Bonferroni t-test (SigmaStat, version 2.0, Jandel Scientific, San Francisco, Calif.). […]

CC(C)(C(=O)NCC(F)(F)C(F)(F)F)C(=O)N[C@@H]1C(=O)Nc2ccccc2-c2ccccc21 [Compound (1), 2,2-Dimethyl-N—((S)-6-oxo-6,7-dihydro-5H-dibenzo[b,d]azepin-7-yl)-N′-(2,2,3,3,3-pentafluoro-propyl)-malonamide]
% TGI ([1]; 3 mg/kg po qd, day 35): 72% | % TGI ([1]; 10 mg/kg po qd, day 35): 82% | % TGI ([1]; 10 mg/kg po, 3+/4− schedule): 56% | % TGI ([1]; 20 mg/kg po, 7+/7− schedule): 63% | % TGI ([1]; 23 mg/kg po, 3+/4− schedule): 64% | % TGI ([1]; 30 mg/kg po, 3+/4− schedule): 50% | % TGI (H460a NSCLC xenografts; 3 mg/kg po qd, dosing ended early): 0% | % TGI (H460a NSCLC xenografts; 10 mg/kg po qd, dosing ended early): 0% | % TGI (H460a NSCLC xenografts; 30 mg/kg po qd × 7 days, not reinitiated): 0% | % TGI (H460a NSCLC xenografts; 60 mg/kg po qd × 7 days, not reinitiated): 0%
